Laboratory results from patent US20260183301A1, “TREATING DISEASES AND DISORDERS WITH IRAK4-MODIFYING COMPOUNDS” (Curis, Inc., priority 2022, published 2026).
“Also recorded” adds a separate entry of the source.

Legend:
[1] = Phase 1 study in AML or high risk MDS: safety (DLT); type: in vivo
Description: (§1) This study will be conducted in 2 parts: an initial dose escalation and dose expansion phase. […] Three patients with AML or MDS will be enrolled at the designated dose. If none of the first 3 patients experience a DLT during the first cycle, patients may be enrolled into the next higher dose level of 300 mg bid until a safe and effective RP2D is established.
(§2) This study is expected to enroll approximately 18 patients to establish the initial RP2D.
(§3) The major study inclusion and exclusion criteria are as follows: Relapsed or refractory AML (primary or secondary, including treatment-related) after at least one standard treatment (including chemotherapy, re-induction therapy or stem cell transplantation) based on the assessment of the investigator or high/very high risk relapsed/refractory MDS (IPSS—R criteria), following at least 6 cycles of hypomethylating agents [HMA] or evidence of early progression.

[2] = test system: in vivo models of non-Hodgkin's lymphoma; test: In vivo models of non-Hodgkin's lymphoma: tumor growth; conditions: FIGS. 22A-C, each model
NF-kappaB p-p50 = test: IHC of NF-kappaB p-p50 in paired tumor biopsies of NHL patients before and after treatment; type: in vivo, human; conditions: paired tumor biopsy samples (3 cases) before and after treatment
Description: Formalin-fixed, paraffin-embedded sections of human tonsil and lymphoma were used. Tissue sections (5 μm) were deparaffinized, and antigen retrieval was carried out at 90-100° C. in citrate buffer for 10-40 min. The sections were incubated in 1% […] for 10 minutes to quench endogenous tissue peroxidase. Tissue sections were then incubated with primary NF-κB p-p50-specific antibody (at 1:300 dilution) for approximately 16 h at 4° C. The primary NF-κB p-p50-specific antibody used NF-κB p-p50 (S337), sc-271908 from Santa Cruz Biotechnology.
The slides were stained using a standard EnVision+System-HRP kit (DAKO, Carpinteria, CA) according to the manufacture's protocol. Immunohistochemical reactions were developed with diaminobenzidine as the chromogenic peroxidase substrate, and slides were counterstained with hematoxylin. Negative control samples included replacement of the primary antibody with nonimmune IgG1 (Dako).

cytokine = test: Pharmacodynamic cytokine changes in Phase I NHL patients; type: in vivo, human
AML or high risk MDS = test: Phase 1 study in AML or high risk MDS: marrow response; type: in vivo, human
Description: as §1, §2, §3

THP-1 xerographs = test: THP-1 leukemic xerographs: disease burden; type: in vivo; conditions: 6 weeks of treatment at 12.5 mg/kg
NF-kB p-p50 S337 = test: Western blot of NF-kB p-p50 S337 in OCL-LY10 cells; type: cell-based; conditions: 3 μM and 10 μM, 48 h, vs DMSO
Description: At 48 h post-treatment, cell lysates were obtained. Protein sample concentration was quantified and equal amount 20 μg of whole protein extract was loaded in each well of SDS-polyacrylamide gel. Cell extracts were separated by 10% SDS-PAGE, transferred to nitrocellulose membrane, and probed as indicated. The following antibodies were used for immunoblot analysis: NF-kB p-p50 S337 (Santa Cruz Biotechnology) and b-actin (Cell Signaling Technology).

[3] = test system: resistant or refractory, advanced NHL; test: Phase I dose escalation trial of oral monotherapy in NHL: tumor reduction; type: in vivo, human; conditions: all doses
Description: Seven dosing cohorts included 50 and 100 mg QD, and 50, 100, 200, 300, or 400 mg BID of daily continuous oral monotherapy in 21-Day cycles. Objective included safety and tolerance (primary), pk/pd and early efficacy (secondary), and biomarker correlations (exploratory). 31 patients with resistant or refractory, advanced NHL have been enrolled.

[4] = test system: Waldenstrom's macroglobulinemia (WM); test: Phase 1 dose-escalation study, WM patient case: serum IgM, m-protein and response; type: in vivo, human
Excerpt: The patient remained asymptomatic for over 4 years with a slow increase in m-protein and IgM during that time. By mid-2017 they started to experience increased fatigue. […] There was no evidence of CXCR4 genomic alteration. […] Several options were discussed including clinical trials and standard of care Bruton's tyrosine kinase inhibitor (BTKi) therapy.
Quantitative immunoglobulins and serum protein electrophoresis were obtained each cycle to determine response to treatment (FIG. 1).
The patient initiated treatment at the first dose level, 50 mg. […] Using a standard 3+3 design the subsequent dose level, 100 mg po BID, was cleared per protocol. […] They reported a significant improvement in their quality of life with resolution of fatigue and returned to a rigorous daily exercise program that they had been unable to perform for the last 2 years due to WM-related symptoms. […] Based on evolving safety data at higher dose levels, the patient was escalated to […] starting with cycle 20 in 1/2020.

Cc1cc(-c2nc(C(=O)Nc3cc4oc(N5CCOCC5)nc4nc3N3CC[C@@H](O)C3)co2)ccn1 [Compound 1, emavusertib]
DLT ([1]; Cohort 1, 200 mg BID, 3 patients with hr-MDS, 1st cycle): No DLT | dose reduction for Gr. 3 dizziness ([1]; Cohort 1, 200 mg BID, C2): 1 | DLT ([1]; Cohort 2, 300 mg BID, first 3 patients): No DLT | tumor growth [2]: reduced tumor growth | NF-kappaB p-p50 expression in tumors (NF-kappaB p-p50): significant downregulation; also recorded: inhibited | pharmacodynamic changes in cytokines (cytokine): cytokine reductions | marrow blasts (AML or high risk MDS; all initial patients, cycle 1): marrow blast reduction | marrow complete responses (AML or high risk MDS; initial patients, cycle 1): several marrow complete responses | clinical activity (AML or high risk MDS; relapsed/refractory AML and high-risk MDS, ongoing Phase 1 study): clinical activity | disease burden (THP-1 xerographs): decreased the disease burden | expression of NF-kB p-p50 S337 (NF-kB p-p50 S337): downregulated | evaluable patients with overall tumor burden decreases of ≥20% from baseline [3]: Eight of 28 | fatigue (baseline symptom) ([4]; WM patient, 200 mg po BID, by summer of 2019): completely resolved | dose dependence of response / tumor burden ([4]; human patient with intra-patient dose escalation): shrinking in a dose-dependent manner; also recorded: dose/response relationship; also recorded: dose-dependent objective response
